What follows are molecules tested on IL-2 (assay: PHA-IL2 (cell activation and cytokine analysis)). Conditions: 50% inhibition concentration class.
Format: cell-based
Description: Cells to be tested may include, but are not limited to, a) Jurkat (a transformed human T cell leukemia), b) whole blood isolated from human or rodent sources, c) peripheral blood mononuclear cells (PBMC) freshly isolated from human or rodent whole blood, or d) purified fractions of PBMC (e.g., CD4 T cells). Cells are plated in 96-well plates at a final density of 1.0-2.0×10^6 cells/ml in 150 ul of assay medium (RPMI+0.5% fetal calf serum). Test compounds are included at a final concentration of ≤20 uM and generally pre-incubated with cells for 30 minutes prior to stimulation. An appropriate stimulus is added, including but not limited to, a) phytohemagglutinin (PHA), b) phorbol myristate acetate (PMA) and ionomycin, or c) stimulatory antibodies to the T cell receptor (TCR) complex (e.g., anti-CD3ε) and CD28. Cell cultures are stimulated for 24-48 hours in a humidified incubator (37 degrees C./5% CO2). A fraction of the culture supernatant is than harvested from each well and assayed for the presence of appropriate cytokine using standard ELISA. Cytokines to be analyzed may include IL-2, IL-4, IL-10, IL-17, IL-22, IFNγ, and/or TNFα. If required, the number of cytokine producing cells can be determined using intracellular staining and flow cytometry. […]

SMILES | IC50 [nM]
O=C(COc1ccccc1-c1ccc(F)cc1F)N1CCC(CCc2ccc3c(c2)OCO3)CC1 [Compound 236] | 10000 to 50000
N#Cc1ccc(-c2ccccc2CCC(=O)N2CCC(CCc3cc(F)cc(F)c3)CC2)cc1 [Compound 226] | 1000 to 10000
O=C(COc1ccccc1-c1ccc(O)cc1)N1CCC(CCc2ccc3c(c2)OCO3)CC1 [Compound 170] | 1000 to 10000
NC(=O)c1cccc(-c2ccccc2OCC(=O)N2CCC(CCc3ccc4c(c3)OCO4)CC2)c1 [Compound 162] | 1000 to 10000
Nc1ccc(-c2ccccc2OCC(=O)N2CCC(CCc3ccc4c(c3)OCO4)CC2)cc1 [Compound 195] | 10000 to 50000
COc1cccc(CCC2CCN(C(=O)C(C)Oc3c(C)cccc3-c3ccccc3)CC2)c1 (stereo not shown) [Compound 235] | < 1000
O=C(COc1ccccc1-c1cccc(OC(F)(F)F)c1)N1CCC(CCc2ccc3c(c2)OCO3)CC1 [Compound 179] | 1000 to 10000
COc1ccc(F)c(-c2ccccc2OCC(=O)N2CCC(CCc3ccc4c(c3)OCO4)CC2)c1 [Compound 238] | < 1000
O=C(NCCO)c1ccc(-c2ccccc2OCC(=O)N2CCC(CCc3ccc4c(c3)OCO4)CC2)cc1 [Compound 182] | 10000 to 50000
O=C(O)c1cncc(-c2ccccc2OCC(=O)N2CCC(CCc3ccc4c(c3)OCO4)CC2)c1 [Compound 196] | 10000 to 50000
O=C(COc1ccccc1-c1cccc(OCc2ccccc2)c1)N1CCC(CCc2ccc3c(c2)OCO3)CC1 [Compound 217] | 1000 to 10000
O=C(NCCO)c1cccc(-c2ccccc2OCC(=O)N2CCC(CCc3ccc4c(c3)OCO4)CC2)c1 [Compound 172] | 10000 to 50000
O=C(COc1ccccc1-c1ccccc1)N1CCC(/C=C/c2ccc3c(c2)OCO3)CC1 [Compound 253] | < 1000
O=C(CCc1ccccc1-c1ccc(F)cc1)N1CCC(CCc2ccc3c(c2)OCO3)CC1 [Compound 222] | 1000 to 10000
O=C(COc1ccccc1-c1ccccc1)N1CCC(CCc2cc(C(F)(F)F)cc(C(F)(F)F)c2)CC1 [Compound 117] | < 1000
Cc1ccccc1-c1ccccc1OCC(=O)N1CCC(CCc2ccc3c(c2)OCO3)CC1 [Compound 155] | 1000 to 10000

SMILES | IC50 [nM]
CCCOc1cccc(-c2ccccc2OCC(=O)N2CCC(CCc3ccc4c(c3)OCO4)CC2)c1 [Compound 244] | 1000 to 10000
O=C(COc1ccccc1-c1ccc(F)nc1)N1CCC(CCc2ccc3c(c2)OCO3)CC1 [Compound 193] | < 1000
O=C(COc1ccccc1-c1ccccc1OC(F)(F)F)N1CCC(CCc2ccc3c(c2)OCO3)CC1 [Compound 184] | 10000 to 50000
CC1Oc2ccc(CCC3CCN(C(=O)COc4ccccc4-c4ccccc4O)CC3)cc2OC1C (stereo not shown) [Compound 278] | < 1000
O=C(COc1ccccc1-c1ccc(Cl)nc1)N1CCC(CCc2ccc(O)cc2)CC1 [Compound 283] | < 1000
O=C(COc1ccccc1-c1ccccc1)N1CCC(CCc2ccc3c(c2)OC(F)(F)O3)CC1 [Compound 211] | 1000 to 10000
N#Cc1ccc(-c2ccccc2OCC(=O)N2CCC(CCc3ccc(O)cc3)CC2)cc1 [Compound 279] | < 1000
O=C(COc1ccccc1-c1ccccc1)N1CCC(CCCc2ccccc2)CC1 [Compound 261] | 1000 to 10000
COc1ccc(-c2ccccc2OCC(=O)N2CCC(CCc3ccc4c(c3)OCO4)CC2)cc1 [Compound 189] | 1000 to 10000
O=C(COc1ccccc1-c1cccnc1)N1CCC(CCc2ccc3c(c2)OCO3)CC1 [Compound 194] | 1000 to 10000
CCc1ccc(OCC(=O)N2CCC(CCc3ccc4c(c3)OCO4)CC2)c(-c2ccc(F)cc2)c1 [Compound 273] | 1000 to 10000
O=C(c1ccccc1)c1ccc(-c2ccccc2OCC(=O)N2CCC(CCc3ccc4c(c3)OCO4)CC2)cc1 [Compound 198] | < 1000
COc1cccc(CCC2CCN(C(=O)CCc3ccccc3-c3ccccc3)CC2)c1 [Compound 221] | 10000 to 50000
O=C(CCc1ccccc1-c1ccc(F)cc1)N1CCC(CCc2cc(F)cc(F)c2)CC1 [Compound 223] | 1000 to 10000
Cc1ccc(-c2ccccc2OCC(=O)N2CCC(CCc3ccc4c(c3)OCO4)CC2)cc1 [Compound 202] | 1000 to 10000
COc1c(F)cc(F)cc1-c1ccccc1OCC(=O)N1CCC(CCc2ccc3c(c2)OCO3)CC1 [Compound 242] | 1000 to 10000

Now from value to molecule:

IC50 [nM] | SMILES
10000 to 50000 | COc1cccc(CCC2CCN(C(=O)C[S+]([O-])c3ccccc3-c3ccccc3)CC2)c1 (stereo not shown) [Compound 313]
10000 to 50000 | Cc1cc(F)ncc1-c1ncccc1OCC(=O)N1CCC(CCc2ccc3c(c2)OCCO3)CC1 [Compound 336]
1000 to 10000 | CN(C)CCNC(=O)c1ccc(OCC(=O)N2CCC(CCc3ccccc3)CC2)c(-c2ccc(C#N)cc2)c1 [Compound 325]
1000 to 10000 | O=C(COc1cccnc1-c1ccc2[nH]ncc2c1)N1CCC(CCc2ccncc2)CC1 [Compound 396]
1000 to 10000 | COc1cccc(CCC2CCN(C(=O)COc3ccc(S(N)(=O)=O)cc3-c3ccc(F)cc3O)CC2)c1 [Compound 386]
1000 to 10000 | COc1cccc(CCC2CCN(C(=O)COc3cccnc3-c3ccc4c(cnn4C)c3)CC2)c1 [Compound 373]
1000 to 10000 | O=C(/C=C/c1ccccc1-c1ccc(F)cc1O)N1CCC(CCc2ccc3c(c2)OCO3)CC1 [Compound 344]
< 1000 | CC(C)Oc1cccc(CCC2CCN(C(=O)COc3ccccc3-c3cc(C#N)ccc3O)CC2)c1 [Compound 441]
< 1000 | N#Cc1ccc(-c2ccccc2OCC(=O)N2CCC(CCc3cccc(OC4CC4)c3)CC2)cc1 [Compound 406]
1000 to 10000 | CN1CC(NC(=O)c2ccc(OCC(=O)N3CCC(CCc4ccccc4)CC3)c(-c3ccc(C#N)cc3)c2)C1 [Compound 367]
< 1000 | CC(C)Oc1cccc(CCC2CCN(C(=O)COc3ccccc3-c3ccc4[nH]cnc4c3)CC2)c1 [Compound 398]
< 1000 | O=C(COc1ccccc1-c1ccc(F)cc1O)N1CCC(CCc2ccc(N3CCOCC3)cc2)CC1 [Compound 305]
1000 to 10000 | O=C(COc1ccccc1-c1ccc(F)cc1)N1CCC(CCc2ccc3c(c2)OCCO3)CC1 [Compound 294]
1000 to 10000 | Cn1ccc2cc(-c3ncccc3OCC(=O)N3CCC(CCc4cccc(OCCN5CCOCC5)c4)CC3)ccc21 [Compound 380]
< 1000 | O=C(COc1cccnc1-c1ccc(F)cc1O)N1CCC(CCc2cccc(OC3CCCC3)c2)CC1 [Compound 410]
< 1000 | N#Cc1ccc(-c2cc(C(=O)NCc3ccccc3)ccc2OCC(=O)N2CCC(CCc3ccccc3)CC2)cc1 [Compound 366]
1000 to 10000 | CN(C)C(=O)c1ccc(OCC(=O)N2CCC(CCc3ccccc3)CC2)c(-c2ccc(C#N)cc2)c1 [Compound 316]
< 1000 | CC(C)Oc1ccc(CCC2CCN(C(=O)COc3ccccc3-c3ccc(C#N)cc3)CC2)cc1OC(C)C [Compound 301]
< 1000 | CC(C)Oc1ccccc1CCC1CCN(C(=O)COc2ccccc2-c2ccc(F)cc2O)CC1 [Compound 431]

IC50 [nM] | SMILES
1000 to 10000 | O=C(COc1ccccc1-c1ccc(F)cc1O)N1CCC(CCc2cccnc2)CC1 [Compound 393]
< 1000 | Cc1nc2cc(-c3ccccc3OCC(=O)N3CCC(CCc4ccc(OC(C)C)cc4)CC3)ccc2[nH]1 [Compound 433]
< 1000 | N#Cc1ccc(OCC(=O)N2CCC(CCc3cccc(O)c3)CC2)c(-c2ccc(C(=O)c3ccccc3)cc2)c1 [Compound 417]
1000 to 10000 | O=C(COc1cccnc1-c1ccc(F)cc1O)N1CCC(CCc2ccc3c(c2)OCO3)CC1 [Compound 326]
< 1000 | C#CCOc1cccc(CCC2CCN(C(=O)COc3ccc(C#N)cc3-c3ccc(C(=O)c4ccccc4)cc3)CC2)c1 [Compound 418]
1000 to 10000 | N#Cc1ccc(-c2cccnc2OCC(=O)N2CCC(CCc3ccc4c(c3)OCO4)CC2)cc1 [Compound 324]
< 1000 | CC(C)Oc1cccc(CCC2CCN(C(=O)COc3cccnc3-c3ccc(C#N)cc3)CC2)c1 [Compound 411]
1000 to 10000 | COc1cccc(CCC2CCN(C(=O)COc3cccnc3-c3ccc4[nH]ncc4c3)CC2)c1 [Compound 362]
< 1000 | O=C(c1ccccc1)c1ccc(-c2ccccc2OCC(=O)N2CCC(CCc3ccc(O)cc3)CC2)cc1 [Compound 314]
1000 to 10000 | O=C(COc1ccccc1-c1ccc(Cl)nc1)N1CCC(CCc2ccc3c(c2)OCCO3)CC1 [Compound 292]
1000 to 10000 | N#Cc1ccc(-c2cc(C(=O)O)ccc2OCC(=O)N2CCC(CCc3ccccc3)CC2)cc1 [Compound 315]
< 1000 | O=C(COc1ccccc1-c1ccc(F)cc1O)N1CCC(CCc2ccccc2)CC1 [Compound 348]
1000 to 10000 | O=C(COc1cccnc1-c1ccc(F)cc1O)N1CCC(CCc2ccncc2)CC1 [Compound 397]
1000 to 10000 | N#Cc1ccc(-c2cc(C#N)ccc2OCC(=O)N2CCC(C#Cc3cnccn3)CC2)cc1 [Compound 429]
< 1000 | COc1cccc(CCC2CCN(C(=O)COc3ccccc3-c3ccc(F)cc3O)CC2)c1 [Compound 304]
< 1000 | CCOc1ccc(CCC2CCN(C(=O)COc3ccccc3-c3ccc(C(=O)c4ccccc4)cc3)CC2)cc1 [Compound 311]
< 1000 | CC(C)Oc1cccc(CCC2CCN(C(=O)COc3ccc(C#N)cc3-c3ccccc3O)CC2)c1 [Compound 414]
1000 to 10000 | N#Cc1ccc(-c2cc(C(=O)Nc3ccccc3)ccc2OCC(=O)N2CCC(CCc3ccccc3)CC2)cc1 [Compound 369]
< 1000 | O=C(c1ccccc1)c1ccc(-c2ccccc2OCC(=O)N2CCC(CCc3cccc(O)c3)CC2)cc1 [Compound 415]

From US10899747B2, “Biaryl piperidine amide compounds and methods of use thereof” (Athenex, Inc., priority 2017, dated 2021)
